Earlier results on one molecule are cited in patent publication US8288413B2, “Benzimidazolones which have activity at M1 receptor” (Glaxo Group Limited, priority 2005, dated 2012).

Data set [1] deals with Alzheimer's patients.
Data set [2] relates to mice.
Data set [3] has as its system monkeys.
For data set [4] the following is noted: in vivo.
For data set [5], the system named is unilateral 6-OH-DA lesioned rats.
In data set [6] the test system is dopamine cell firing.
For data set [7], the system named is c-fos expression. Conditions: rats.
Data set [8] has as its system rats.

Turning to `CCCCCCOc1nsnc1C1=CCCN(C)C1` [xanomeline], the “psychotic symptoms such as suspiciousness, hallucinations and delusions” value in data set [1] (Alzheimer's patients) was “reduce”. The side effects result in data set [1] (clinical use) is “dose-limiting peripheral cholinergic side effects”. Moreover, the apomorphine induced climbing result in data set [2] is “reverses”. In data set [3], the EPS liability entry is given as “without EPS liability” and the amphetamine-induced motor unrest entry is recorded as “reverses”. The conditioned avoidance result in data set [4] is “inhibit”. In data set [5], the “dopamine agonist driven turning” value is “reverses”. Further, the “A9 dopamine cell firing” value in data set [6] (A9) is given as “not A9”. For the same molecule, the “A10 dopamine cell firing” value in data set [6] (A10) is on record as “inhibit”. In addition, in data set [7], the “c-fos expression in prefrontal cortex and nucleus accumbens” value is listed as “induces”; the “c-fos expression in striatum” value is recorded as “not in striatum”. In addition, in data set [8], the amphetamine induced locomotion result is listed as “reverses”.
